Among the data in PubChem BioAssay (NCI) are TGI and GI50 values, retold here.

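48-hour exposure; five concentrations; linearly interpolated endpoints. GI50: concentration for 50% inhibition of growth. The concentration for full growth arrest is given as TGI.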

Some test systems named below: CAKI-1 renal; HCC-2998 colon; HL-60(TB) leukemia; HT29 colon; K-562 leukemia; SF-268 CNS; UO-31 renal; MDA-MB-231 breast; MDA-MB-435; HS 578T breast.
Holding throughout (experiment): NCI anticancer screen, dose series, 48 h

As for `O=C(O)CNCc1c2ccccc2[n+]([O-])c2ccccc12`, the TGI with CAKI-1 renal is more than 100 µM; in the experiment on HCC-2998 colon, more than 100 µM; with HL-60(TB) leukemia it was 91.1 µM; in the experiment with HT29 colon, more than 100 µM; in the experiment with K-562 leukemia, more than 100 µM; with SF-268 CNS it was more than 100 µM. Further, the TGI with UO-31 renal is 91.7 µM.
With `CSc1sc(=S)sc1SC`, the TGI is more than 100 µM in the experiment on CAKI-1 renal; more than 100 µM in the experiment with HCC-2998 colon; more than 31.6 µM with HL-60(TB) leukemia; more than 100 µM with HT29 colon; more than 100 µM in the experiment on K-562 leukemia; more than 100 µM in the experiment on SF-268 CNS. The TGI with UO-31 renal was more than 100 µM.
In the case of `COc1cc2c3c(c4cc(OC)c(OC)cc4c2cc1OC)[C@H](O)[C@@H]1CCCN1C3`, the TGI with CAKI-1 renal is 2.3 µM; in the experiment on HL-60(TB) leukemia, 3.49 µM; with HT29 colon it was 1.53 µM; in the experiment on K-562 leukemia, more than 100 µM; with MDA-MB-231 breast it was 0.562 µM; in the experiment with MDA-MB-435, 2.86 µM.
In the case of `O=C(O)C(Br)Cc1ccc2c(c1)OCO2` (stereo unspecified), the TGI in the experiment with CAKI-1 renal, in the experiment with HCC-2998 colon, in the experiment with HL-60(TB) leukemia, with HT29 colon, in the experiment with K-562 leukemia and with SF-268 CNS was more than 100 µM each time. Also, the TGI in the experiment on UO-31 renal was more than 100 µM.
`COC(=O)c1nc2c3c(cccc3c1C(=O)OC)Nc1ccccc1-2`: the TGI with CAKI-1 renal, with HCC-2998 colon, with HL-60(TB) leukemia, with HS 578T breast, in the experiment with HT29 colon and in the experiment on K-562 leukemia was more than 100 µM throughout. Besides, the TGI in the experiment on MDA-MB-231 breast, in the experiment with MDA-MB-435, in the experiment on SF-268 CNS and in the experiment on UO-31 renal was more than 100 µM throughout.
Regarding `CC1(C)N=C(N)N=C(N)N1c1cccc(OCc2cccc([N+](=O)[O-])c2)c1`, the TGI was more than 100 µM with CAKI-1 renal; 58.2 µM in the experiment on HL-60(TB) leukemia; more than 100 µM in the experiment with HS 578T breast; more than 100 µM with HT29 colon; more than 100 µM in the experiment with K-562 leukemia; more than 100 µM in the experiment on MDA-MB-231 breast. Besides, the TGI in the experiment on MDA-MB-435, in the experiment with SF-268 CNS and with UO-31 renal was more than 100 µM each time.
As to `C=CC(c1ccccc1)C1(O)c2cccc(O)c2C(=O)c2c(O)cccc21` (stereo unspecified), the TGI in the experiment with CAKI-1 renal came out at 42.5 µM; in the experiment on HCC-2998 colon, 22.9 µM; with HS 578T breast, 34.8 µM; in the experiment on HT29 colon, 25.3 µM; in the experiment on K-562 leukemia it was 37.7 µM; in the experiment with MDA-MB-231 breast it was 36.7 µM. Moreover, the values for the TGI in the experiment on MDA-MB-435, with SF-268 CNS and in the experiment on UO-31 renal were 22 µM, 36.6 µM and 41.6 µM, respectively.
In the case of `CCCCCCCCCCCCCCCCOCCCOP(=O)(O)C1CCCN(O)C1=O` (stereo unspecified), the GI50 is 2.09 µM in the experiment with CAKI-1 renal; 1.11 µM with HCC-2998 colon; 1.31 µM in the experiment with HL-60(TB) leukemia; 14.1 µM in the experiment on HS 578T breast; 0.953 µM with HT29 colon; 4.25 µM with K-562 leukemia. Moreover, the GI50 in the experiment on MDA-MB-231 breast was 2.3 µM; with MDA-MB-435, 3.13 µM; in the experiment with SF-268 CNS, 1.81 µM; in the experiment on UO-31 renal, 2.77 µM. Besides, the TGI in the experiment on CAKI-1 renal was determined as 6.18 µM; with HCC-2998 colon, 14.6 µM; with HL-60(TB) leukemia it was 10.3 µM; with HS 578T breast, 66.7 µM; with HT29 colon it was 83.5 µM; with K-562 leukemia it was 42.3 µM. Also, the TGI was 16.8 µM in the experiment with MDA-MB-231 breast, more than 100 µM in the experiment on MDA-MB-435, 11.7 µM in the experiment with SF-268 CNS and 13.7 µM in the experiment with UO-31 renal.
As to `S=C1NN=C2C(=C3CCCC4C5CCCCC5N2C34)N1` (stereo unspecified), the TGI in the experiment on CAKI-1 renal, in the experiment with HL-60(TB) leukemia, with HS 578T breast, in the experiment on K-562 leukemia, in the experiment on SF-268 CNS and with UO-31 renal was more than 100 µM in each case.
As to `O=C1c2ccccc2C(=O)c2c(O)c(O)cc(O)c21`, the TGI in the experiment on CAKI-1 renal was more than 100 µM; in the experiment with HCC-2998 colon it was 85.6 µM; in the experiment with HL-60(TB) leukemia, 56.5 µM; with K-562 leukemia it was more than 100 µM; in the experiment with SF-268 CNS it was more than 100 µM; with UO-31 renal, 49.2 µM.
As for `C/C(=C\COP(=O)(O)OP(=O)(O)O)CC/C=C(\C)CNc1ccc([N+](=O)[O-])cc1`, the TGI in the experiment on CAKI-1 renal, in the experiment with HL-60(TB) leukemia, in the experiment on HS 578T breast, with HT29 colon, with K-562 leukemia and in the experiment with MDA-MB-231 breast was more than 100 µM in each case. Further, the TGI with MDA-MB-435, with SF-268 CNS and in the experiment on UO-31 renal was more than 100 µM each time.
Consider `COc1ccc2c(c1)/C(=C\c1cccc(/C=C3/C(=O)Nc4ccc(OC)cc43)n1)C(=O)N2`, for which the TGI in the experiment with CAKI-1 renal was 5.62 µM; in the experiment with HCC-2998 colon it was 3.58 µM; with HL-60(TB) leukemia it was 2.05 µM; in the experiment with HS 578T breast, more than 46.9 µM; in the experiment on K-562 leukemia, 2.02 µM; in the experiment on MDA-MB-231 breast, 4.78 µM. The TGI is 6.81 µM in the experiment with MDA-MB-435, more than 39.9 µM with SF-268 CNS and 3.81 µM with UO-31 renal. Besides, the GI50 in the experiment with MDA-MB-231 breast was 0.873 µM.
